Experimental data taken from publication PMC3873929, “Cellular Density Effect on RGD Ligand Internalization in Glioblastoma for MRI Application” (PLoS ONE, 2013).
Values joined by “and” are separate entries in the source; they are usually repeats but may differ in a detail not shown here. Equal entries are not always repeated.

Columns and labels:
Type in all cases: cell-based, Human
U87 cells [1] = experiment: T1-weighted MRI (2D FLASH) of U87 cells after uptake of contrast agent; conditions: U87 cells at 7*10^4 cell/cm^2, 400 µM, 4.7 T, unlabeled cells SNR 60
Protocol: E-[c(RGDfK)2]-DOTA-Gd uptake by U87 cells was performed on cells platted at 7.10^4 cells/cm^2. After 24 h, the cells were then incubated for 4 h with 400 µM of E-[c(RGDfK)2]-DOTA-Gd or for 1 h with MnCl2 at 400 µM as positive contrast for the T1-weighted (T1-w) sequence. Then the medium was discarded and the cells were washed with RPMI. The cells were re-suspended at 2.10_6 cells in 100 µL of phosphate buffer saline (PBS) for each condition and mixed with 100 µL of agarose 2% (Sigma-Aldrich).
MR images of cells trapped in agarose gel were acquired on a 4.7 T Biospec system (Bruker, Ettlingen, Germany). The system was equipped with a 6-cm diameter BG6 gradient system capable of 950 mT/m maximum strength. Imaging was performed with a birdcage resonator (35-mm diameter and 80-mm length) tuned at 200.3 MHz. 2D images were acquired with a T1-w sequence (FLASH sequence, TE/TR: 1,6/14 ms, flip angle: 60°, FOV: 25*25 mm, matrix:128*96, […], total acquisition time: 5 min 44 s).

U87 cells [2] = experiment: Flow cytometry uptake of fluorescent RGD ligands versus cell density; conditions: 8*10^3 to 10^5 cells/cm^2, 1 h incubation, Alexa Fluor-488 conjugates (E-[c(RGDfK)2] 2 µM; iRGD 15 µM)
Protocol: (§1) Uptakes of E-[c(RGDfK)2]-Alexa488 and iRGD-alexa488 by U87 cells were compared for different cellular densities using flow cytometry. Twenty four multiwell plates (Becton-Dickinson, 2 cm^2/well), were pretreated with collagen (Sigma-Aldrich) (10 µg/cm^2). Then the cells were seeded during 24 h either at densities ranging from 8.10^3 to 10^5 cells/cm2 or at three typical densities being in the lowest, the median and the highest values of the previously mentioned density range. The cells were incubated 1 h with the fluorescent RGD ligands (E-[c(RGDfK)2]-Alexa488, 2 µM; iRGD-alexa488, 15 µM). Then the medium was discarded and the cells were washed with Roswell Park Memorial Institute Medium (RPMI, Gibco Corp). Thereafter the cells were re-suspended in RPMI at 100 cells/µl and analyzed by flow cytometry (Guava easyCyte flow cytometer/counter, Millipore, λexc: 488 nm, λem: 525 nm).

U87 cells [3] = experiment: Fluorescence microscopy of sub-cellular location of fluorescent RGD ligands
Protocol: Protocols for microscopy were identical to those for flow cytometry. Cells were seeded on glass coverslips after collagen treatment as described above. After the different sets of incubations the cells were washed with RPMI and fixed with paraformaldehyde (4%, 20 min). Nuclei were then labeled with DAPI (0.01 mg/ml). After three washes, the coverslips were mounted on glass slides and observed using a Leica DM5500 B (magnification 63×, λexc: 480 nm, λem: 530 nm and λexc:360 nm λem: 470 nm for alexa fluor-488 and DAPI respectively).

U87 cells [4] = experiment: Flow cytometry uptake with endocytosis pathway inhibitors (nystatin, amiloride, chloroquine); conditions: 1 h
Protocol: as §1
The clathrin-mediated endocytosis and the caveola-dependent endocytosis were characterized by incubations with chloroquine (100 µM) and nystatin (30 µM), respectively. Contribution of macropinocytosis was studied following amiloride treatment (1 mM).
(§2) All of these inhibitors and drugs were applied on the cells for 1 h simultaneously with the fluorescent RGD ligands. When specified, incubation of drugs begun 20 min before the incubation with the RGD ligands. All the reagents were from Sigma-Aldrich.

U87 cells [5] = experiment: Flow cytometry uptake with cytoskeleton drugs (paclitaxel, cytoD, colchicine, nocodazole); conditions: 1 h
Protocol: as §1
The microtubule targeting was performed using paclitaxel (10 µM), colchicin (7.5 µM) and nocodazole (30 µM).
as §2

U87 cells [6] = experiment: Flow cytometry uptake under different energy substrates and oxidative metabolism inhibitors
Protocol: Human GBM cell line U87-MG from the American Type Culture Collection (ATCC, LGC standards, Middlesex, UK) was cultured in Dulbecco's modified eagles medium (DMEM, Gibco Corp) supplemented with 10% fetal calf serum (FCS, Gibco Corp), in a humidified atmosphere with 5% CO2 at 37°C. The characterization of the metabolism contribution was performed with DMEM without glucose and pyruvate (DMEM, Gibco Corp). Glucose or pyruvate were added when necessary at the concentration of 1 g/L and 0.11 g/L , respectively.
as §1
The oxidative metabolism was studied with oligomycine (20 µM) and rotenone (10 µM).
as §2

U87 cells [7] = experiment: T1-weighted MRI (3D FLASH) of U87 cells seeded at three densities and labeled with RGD-Gd; conditions: 400 µM
Protocol: Seeded at three densities, cells were incubated with E-[c(RGDfK)2]-DOTA-Gd at 400 µM for 4 h. The same protocol to prepare cells trapped in agarose gel was used. 3D images of the RGD internalization were acquired with a T1-w sequence (FLASH sequence, TE/TR: 1,5/12 ms, flip angle: 20°, FOV: 30*25*20 mm, matrix:128*128*64, 6 averages, total acquisition time: 9 min 49 s).

For `[Cl][Mn][Cl]` [MnCl2, reference compound], the “SNR of labeled U87 cells (T1-w MRI)” value (U87 cells [1]; positive contrast control, 1 h incubation) was 100.
CRGDK/RGPD/EC [iRGD-alexa488] was tested, and the “Increase of cell labeling (MFI) at the highest densities compared to the lowest” value (U87 cells [2]) was 30%, the “Sub-cellular location of the fluorescent signal” value (U87 cells [3]; 1 h at 37°C, all studied cell densities, no inhibitor (iRGD-alexa488 15 µM)) was “most of the signal appeared intracellular” and the Membrane labeling (U87 cells [3]; 1 h at 37°C, no inhibitor (iRGD-alexa488 15 µM)) was “undetectable”. For the same molecule, the “Fluorescence location in the presence or not of nystatin” value (U87 cells [3]; nystatin (30 µM), data not shown) was “inside cytoplasmic vesicles”, the “Sub-cellular location of fluorescence during inhibition of clathrin-mediated endocytosis” value (U87 cells [3]; with chloroquine (100 µM)) was “typical cytoplasmic membrane labeling” and the “Effect of macropinocytosis inhibition (amiloride) on internalization” value (U87 cells [4]; amiloride 1 mM) was “had no effect”. The “Decrease of uptake after chloroquine treatment, high density” value (U87 cells [4]; chloroquine 100 µM, high density (95000 cell/cm^2 for E-[c(RGDfK)2], 75000 for iRGD), mean ± SEM, n≥3) was 53.9%±2.5%, the “Decrease of uptake after chloroquine treatment, low density” value (U87 cells [4]; chloroquine 100 µM, low density (15000 cell/cm^2 for E-[c(RGDfK)2], 7000 for iRGD), mean ± SEM, n≥3) was 42.4%±1.1% and 42% and the “Decrease of uptake after chloroquine treatment, medium density” value (U87 cells [4]; chloroquine 100 µM, medium density (50000 cell/cm^2 for E-[c(RGDfK)2], 35000 for iRGD), mean ± SEM, n≥3) was 48.2±0.2%. The “Effect of caveolin-dependent endocytosis inhibition (nystatin) on internalization” value (U87 cells [4]; nystatin 30 µM, all studied cell densities) was “did not alter”, the “Uptake results after colchicine treatment (strong decrease), high density” value (U87 cells [5]; colchicine 7.5 µM, high density (80000 cell/cm^2 for E-[c(RGDfK)2], 70000 for iRGD), mean ± SEM, n≥3) was 54.8%±0.8% and the “Uptake results after colchicine treatment (strong decrease), low density” value (U87 cells [5]; colchicine 7.5 µM, low density (10000 cell/cm^2), mean ± SEM, n≥3) was 55.0%±0.3%. The “Uptake results after colchicine treatment (strong decrease), medium density” value (U87 cells [5]; colchicine 7.5 µM, medium density (40000 cell/cm^2 for E-[c(RGDfK)2], 35000 for iRGD), mean ± SEM, n≥3) was 53.1%±0.1%, the “cytoD effect on internalization (decrease), high density” value (U87 cells [5]; cytoD 20 µM, high density (80000 cell/cm^2 for E-[c(RGDfK)2], 70000 for iRGD), mean ± SEM, n≥3) was 29.0%±2.1% and the “cytoD effect on internalization (decrease), low density” value (U87 cells [5]; cytoD 20 µM, low density (10000 cell/cm^2), mean ± SEM, n≥3) was 29.7%±1.3%. The “cytoD effect on internalization (decrease), medium density” value (U87 cells [5]; cytoD 20 µM, medium density (35000 cell/cm^2 for iRGD), mean ± SEM, n≥3) was 23.5%±1.3%, the “Effect of paclitaxel (stabilization of polymerized microtubules) on internalization” value (U87 cells [5]; paclitaxel 10 µM) was “did not alter” and the “Internalization without glucose and with or without pyruvate (conditions 2 and 3)” value (U87 cells [6]; DMEM without glucose, no oligomycin, remained cell density dependent) was “not altered”. For the same molecule, the “Internalization with oligomycin in presence of glucose and pyruvate (condition 4)” value (U87 cells [6]; oligomycin 20 µM, glucose 1 g/L, pyruvate 0.11 g/L) was “decreased more for the lowest cell densities than for the highest ones”, the “Internalization without glucose in the presence of pyruvate and oligomycin (condition 5)” value (U87 cells [6]; oligomycin 20 µM, regardless of the cell density) was “strong inhibition” and the “Internalization with rotenone compared with oligomycin” value (U87 cells [6]; rotenone 10 µM, data not shown) was “comparable”.
For “E-[c(RGDfK)2]-DOTA-Gd (bicyclic or more) [RGD-gadolinium chelate made by mixing E-[c(RGDfK)2]-DOTA with GdCl2; MRI contrast agent]”, the “SNR of labeled U87 cells (T1-w MRI)” value (U87 cells [1]; 4 h incubation) was 70, the “SNR values for low, medium and high density compared with each other” value (U87 cells [7]) was “not significantly different” and the “SNR of the different cell densities compared with SNR of control” value (U87 cells [7]; p<0.05) was “significantly higher”. The “SNR (T1-w MRI), highest cell density” value (U87 cells [7]; highest density, 4 h, 3D FLASH 4.7 T) was 16.5.
